System: 6-OHDA rat model
Experiment: Hemi-parkinsonian (6-OHDA lesioned) rat model: prolongation of L-DOPA-induced contralateral rotations
Details: second hour post administration (61-120 min); L-DOPA 50 mg/kg i.p. with vehicle (DMSO, i.p.); male Sprague-Dawley rats

Structure (SMILES): N[C@@H](Cc1ccc(O)c(O)c1)C(=O)O [L-Dopa, L-3,4-dihydroxyphenylalanine]
- total number of rotations observed with L-Dopa alone: less than 50 turns

From US8293775B2, “Benzoxazolone derivatives, processes for preparing them and their uses” (UCB Pharma, S.A., priority 2004, dated 2012)
